Assay results as given in patent US7365221B2, “Monoacylated betulin and dihydrobetulin derivatives, preparation thereof and use thereof” (priority 2002, dated 2008).
Read-outs that look alike come from different tables or passages of the source.

What was measured:
HIV-1 (IIIB isolate) = assay type: cell-based; settings: average of at least two experiments; cell line not stated; read-out: Anti-HIV Activity EC50
Description: (§1) The biological evaluation of HIV-1 inhibition was carried out as follows according to established protocols (Montefiori et al., Clin Microbiol. 26:231-235 (1988)). The human T-cell line, MT-2, was maintained in continuous culture with complete medium (RPMI 1640 with 10% fetal calf serum supplemented with L-glutamine at 5% CO2 and 37° C.). Test samples were first dissolved in dimethyl sulfoxide at a concentration of 10 mg/ml to generate master stocks with dilutions made into tissue culture media to generate working stocks. The following drug concentrations were routinely used for screening: 100, 20, 4 and 0.8 μg/ml. For agents found to be active, additional dilutions were prepared for subsequent testing so that an accurate EC50 value (defined below) could be determined. Test samples were prepared and to each sample well was added 90 μl of media containing MT-2 cells at 3×10^5 cells/ml and 45 μl of virus inoculum (HIV-1 IIIIB isolate) at a concentration necessary to result in 80% killing of the cell targets at 5 days post-infection (PI). Control wells containing virus and cells only (no drug) and cells only (no virus or drug) were also prepared. A second set of samples were prepared identical to the first and were added to cells under identical conditions without virus (mock infection) for toxicity determinations (IC50 defined below). In addition, AZT was also assayed during each experiment as a positive drug control. On day 5 PI, virus-induced cell killing was determined by measuring cell viability using the XTT method. Compound toxicity was determined by XTT using the mock-infected samples. If a test sample had suppressive capability and was not toxic, its effects were reported in the following terms: IC50, the concentration of test sample which was toxic to 50% of the mock-infected MT-2 cells; EC50, the concentration of the test sample that was able to suppress HIV replication by 50%; and the Therapeutic index (TI) the ratio of the IC50 to EC50.
(§2) Compounds of the present invention were assayed for anti-HIV activity according to the following assay procedures. The T cell line, H9, and the promonocytic cell line, U937, were maintained separately in continuous culture with complete medium (RPMI 1640 with 10% fetal calf serum) at 5% CO2 and 37° C. The cell lines were used in experiments only when in the logarithmic phase of growth, whereas uninfected peripheral blood mononuclear cells (PBMCs) were first stimulated with PHA (1 μg/mL) for three days. All cell targets were incubated with HIV-1 (IIIB isolate, 1×10^6 TCID50/mL) for one hour at 37° C. and 5% CO2. The cell lines and PBMCs were washed thoroughly to remove unadsorbed virions and resuspended at 4×10^5 cells/mL in complete medium or complete medium with 10% v/v interleukin 2 (IL-2), respectively. 100 μL aliquots were placed into wells of 96-well tissue culture plates containing an equal volume of test compounds (diluted in the appropriate culture medium). The toxicity of each compound was assessed by determining the number of compound-exposed uninfected cells that remained after five days at 37° C. and 5% CO2. A p24 antigen ELISA assay was used to determine the level of virus released in the medium of the HIV-infected cultures. […] The cutoff for the p24 ELISA assay was 12.5 pg/mL. p24 in the culture medium was quantitated against a standard curve containing known amounts of p24. The effective (EC50) and inhibitory (IC50) concentrations for anti-HIV activity and cytotoxicity, respectively, were determined.

uninfected cells = test: Cytotoxicity on compound-exposed uninfected cells
Description: as §1, §2

[1] = test system: HIV-1 replication in H9 lymphocyte cells; settings: Fujioka et al. 1994, cited from earlier work
[2] = read-out: Cytotoxicity IC50, average of at least two experiments, uninfected cells
[3] = H9 lymphocyte cells, read-out: EC50, inhibitory activity against HIV-1 replication

Row | Structure (SMILES) | EC50 (HIV-1 (IIIB isolate)) [nM] | IC50 (uninfected cells) [nM] | other results
1 | C=C(C)[C@@H]1CC[C@]2(CO)CC[C@]3(C)[C@H](CC[C@@H]4[C@@]5(C)CC[C@H](OC(=O)CCCC(=O)OCC)C(C)(C)[C@@H]5CC[C@]43C)[C@@H]12 [Compound 18, 3-O-glutaryl betulin ethyl ester] | 16.9 |  | IC50 (uninfected cells; [2]): 36400 nM
2 | CC(=O)[C@@H]1CC[C@]2(C(=O)O)CC[C@]3(C)[C@H](CC[C@@H]4[C@@]5(C)CC[C@H](O)C(C)(C)[C@@H]5CC[C@]43C)[C@@H]12 [platanic acid] |  |  | EC50 [1, 3]: 6500 nM
3 | C=C(C)[C@@H]1CC[C@]2(CO)CC[C@]3(C)[C@H](CC[C@@H]4[C@@]5(C)CC[C@H](OC(=O)CC(C)(C)C(=O)O)C(C)(C)[C@@H]5CC[C@]43C)[C@@H]12 [Compound 6] | 5.6 | 33500 | 
4 | C=C(C)[C@@H]1CC[C@]2(CO)CC[C@]3(C)[C@H](CC[C@@H]4[C@@]5(C)CC[C@H](OC(=O)CCCC(=O)O)C(C)(C)[C@@H]5CC[C@]43C)[C@@H]12 [Compound 10, 3-O-glutaryl betulin] | 66.2 |  | IC50 (uninfected cells; [2]): 44400 nM
5 | C=C(C)[C@@H]1CC[C@]2(CO)CC[C@]3(C)[C@H](CC[C@@H]4[C@@]5(C)CC[C@H](OC(=O)COCC(=O)O)C(C)(C)[C@@H]5CC[C@]43C)[C@@H]12 [Compound 12] | 24.6 | > 44800 | 
6 | C=C(C)[C@@H]1CC[C@]2(C(=O)O)CC[C@]3(C)[C@H](CC[C@@H]4[C@@]5(C)CC[C@H](O)C(C)(C)[C@@H]5CC[C@]43C)[C@@H]12 [Betulinic acid, betulinic acid] |  |  | EC50 [1, 3]: 1400 nM
7 | CC(C)[C@@H]1CC[C@]2(C(=O)O)CC[C@]3(C)C(CCC4[C@@]5(C)CC[C@H](O)C(C)(C)C5CC[C@]43C)C12 (stereo partly shown) [dihydrobetulinic acid] |  |  | EC50 ([1]; unit inferred, read-out: EC50, anti-HIV activity): 900 nM
8 | C=C(C)[C@@H]1CC[C@]2(CO)CC[C@]3(C)[C@H](CC[C@@H]4[C@@]5(C)CC[C@H](OC(=O)CC(C)(C)CC(=O)O)C(C)(C)[C@@H]5CC[C@]43C)[C@@H]12 [Compound 8] | 4.4 | 28900 | 
